Data on one molecule can be found in article PMC10208151 (mAbs, 2023).

The structures appear in SMILES notation.

In this assay the target is BMSmAb (Bristol Myers Squibb mAb, a type of IgG4). In words: STD NMR titration. Type of assay: binding.

For orientation: Kd means the constant that tells how readily two partners part at equilibrium. Read a high Kd as lower affinity. Molecule `OC[C@H]1O[C@@](CO)(O[C@H]2O[C@H](CO)[C@@H](O)[C@H](O)[C@H]2O)[C@@H](O)[C@@H]1O` [sucrose] displayed a Kd of 67.8 mM.
